Data: patent US20230323475A1, “TEST METHOD, OF DIVIDING BLASTIC PLASMACYTOID DENDRITIC CELL NEOPLASM (BPDCN) INTO SUBTYPES” (JAPANESE FOUNDATION FOR CANCER RESEARCH, priority 2016, published 2023)

How the values were obtained:
Type in all cases: cell-based
[1] = tested on: BPDCN cell line CAL-1 (MYC+BPDCN); assay: Cell survival rate (Cell Titer-Glo cell growth assay), CAL-1; details: for survival rate of the CAL-1 cell line: CAL-1, 48 hours after addition of the BET bromodomain-selective inhibitor
From the text: (§1) The cell lines used were 4 lines: BPDCN cell lines CAL-1 (MYC^+BPDCN; Non Patent Literature 11; obtained from Nagasaki University) and PMDC05 (MYC-BPDCN; Non Patent Literature 12; obtained from Niigata University), a positive control plasma cell neoplasm KMS12PE (obtained from JCRB Cell Bank) having the increased expression of MYC, and a negative control leukemia cell line K562 (obtained from JCRB Cell Bank) in which no MYC gene rearrangement was seen.
(§2) The CAL-1, PMDC05, or KMN12PE cells at 4000 cells/well or K562 at 1000 cells/well were inoculated to 96-well cell culture plates. […] The cell survival rates were measured using a cell growth assay kit using CTG reagent (Cell Titer-Glo, manufactured by Promega Corp.).
(§3) Aurora kinase inhibitors, albeit not agents directly suppressing MYC expression, were analyzed for their effects in the present invention. […] Each inhibitor was added from 1 nm to 10000 nM to the medium of the cells of each line. 48 hours later, the survival rates of these cells were analyzed (FIG. 10).
(§4) Each inhibitor was added in the concentration of 1 nM to 10000 nM to the 4 cell lines described above. The survival rates of these cells were analyzed 48 hours later (FIG. 11).

[2] = tested on: BPDCN cell line PMDC05 (MYC-BPDCN); assay: Cell survival rate (Cell Titer-Glo cell growth assay), PMDC05; details: PMDC05, 48 hours, FIG. 6
From the text: as §1, §2, §3, §4

[3] = tested on: MYC expression and PARP cleavage in KMS12PE cells; assay: Western blot for MYC expression and PARP cleavage after JQ1, KMS12PE; details: 400 nM JQ1 for 24 hours, compared with untreated cells, FIG. 9
From the text: (§5) The primary antibody used was anti-cMyc rabbit monoclonal antibody (manufactured by Abcam plc) and an anti-GAPDH mouse monoclonal antibody (manufactured by Merck Millipore) as control. The secondary antibody used was a HRP-labeled anti-rabbit IgG antibody (donkey, manufactured by Amersham Biosciences Corp.). SuperSignal West Femto Maximum Sensitivity Substrate (manufactured by Pierce/Thermo Fisher Scientific Inc.) was used for detection.
(§6) As mentioned above, it was shown that the cell growth was suppressed by the addition of the BET bromodomain-selective inhibitors to a medium. Next, analysis was conducted on a mechanism underlying the suppression of the cell growth. JQ1 was added to CAL-1, PMDC05, KMS12PE, and K562 cells. Twenty-four hours later, the cells were collected and analyzed by Western blot for MYC expression and PARP cleavage serving as an index for cell death by apoptosis. An anti-PARP antibody was obtained from Cell Signaling Technology, Inc.

[4] = tested on: negative control leukemia cell line K562; assay: Cell survival rate (Cell Titer-Glo cell growth assay), K562; details: 48 hours, JQ1 at 1000 nM or more, FIG. 6
From the text: as §1, §2

[5] = tested on: PARP cleavage in K562 cells; assay: Western blot for PARP cleavage after JQ1, K562; details: K562, JQ1 for 24 hours, FIG. 9
From the text: as §5, §6

[6] = tested on: PARP cleavage in PMDC05 cells; assay: Western blot for PARP cleavage after JQ1, PMDC05; details: PMDC05, JQ1 for 24 hours, FIG. 9
From the text: as §5, §6

[7] = tested on: MYC expression and PARP cleavage in CAL-1 cells; assay: Western blot for MYC expression and PARP cleavage after JQ1, CAL-1; details: CAL-1, 400 nM JQ1 for 24 hours, compared with untreated cells, FIG. 9
From the text: as §5, §6

[8] = tested on: MYC expression in CAL-1 cells; assay: MYC expression over time by immunostaining, CAL-1; details: FIG. 7
Protocol: The ratios of MYC-positive cells at the time of JQ1 addition (0 hours), 6 hours later, 24 hours later, and 48 hours later were approximately 95%, 60%, 15%, and 0%, respectively. Good correlation was observed between decrease in cell survival rate and decrease in MYC expression level.

[9] = inhibitor added at a high concentration

Cc1sc2c(c1C)C(c1ccc(Cl)cc1)=N[C@@H](CC(N)=O)c1nnc(C)n1-2 [CPI203]
survival rate of the CAL-1 cell line ([1]; FIG. 6): sharply decreased | survival rate of PMDC05 [2, 9]: high survival rate

COc1cc2c(cc1-c1c(C)noc1C)ncc1[nH]c(=O)n([C@H](C)c3ccccn3)c12 [I-BET151]
survival rate of the CAL-1 cell line ([1]; FIG. 6): sharply decreased | survival rate of PMDC05 [2, 9]: high survival rate

Cc1sc2c(c1C)C(c1ccc(Cl)cc1)=N[C@@H](CC(=O)OC(C)(C)C)c1nnc(C)n1-2 [JQ1]
MYC expression (Western blot) [3]: markedly decreased | expression of cleaved-PARP (index for cell death by apoptosis) [3]: increased | survival rate of K562 [4]: high survival rate | increased PARP cleavage [5]: not observed | increased PARP cleavage [6]: not observed | MYC expression (Western blot) [7]: markedly decreased | expression of cleaved-PARP (index for cell death by apoptosis) [7]: increased | ratio of MYC-positive cells ([8]; CAL-1, 400 nM JQ1, 6 hours later): ~60% | ratio of MYC-positive cells ([8]; CAL-1, 400 nM JQ1, 24 hours later): ~15% | ratio of MYC-positive cells ([8]; CAL-1, 400 nM JQ1, 48 hours later): ~0% | ratio of MYC-positive cells ([8]; CAL-1, 400 nM JQ1, at the time of JQ1 addition (0 hours)): approximately 95% | concentration above which the survival rate of CAL-1 was rapidly decreased ([1]; CAL-1, 48 hours after addition, 6.25 nM to 6400 nM, FIG. 6): exceeded 150 nM | survival rate of PMDC05 ([2]; JQ1 added at a high concentration of 1000 nM or more): high survival rate

Cc1sc2c(c1C)C(c1ccc(Cl)cc1)=N[C@@H](CC(=O)Nc1ccc(O)cc1)c1nnc(C)n1-2 [OTX015]
survival rate of the CAL-1 cell line ([1]; FIG. 6): sharply decreased | survival rate of PMDC05 [2, 9]: high survival rate

COc1ccccc1S(=O)(=O)Nc1ccc2c(c1)CN(C)C(=O)N2 [PFI-1]
survival rate of the CAL-1 cell line ([1]; FIG. 6): sharply decreased | survival rate of PMDC05 [2, 9]: high survival rate

COc1cc(Nc2ncc3c(n2)-c2ccc(Cl)cc2C(c2c(F)cccc2OC)=NC3)ccc1C(=O)O [alisertib]
growth suppressive or inhibitory effect on CAL-1 compared with PMDC05 cells ([1]; 1 nM to 10000 nM, 48 hours, FIG. 10): higher growth suppressive or inhibitory effect | growth suppression of BPDCN cell lines that exhibited MYC expression ([1]; summary statement in the description): effective
